Experimental data published in ChEMBL document CHEMBL2412952, “2-Substituted 4-hydroxybutanamides as potential inhibitors of γ-aminobutyric acid transporters mGAT1-mGAT4: synthesis and biological evaluation” (Bioorg Med Chem, 2013).

What was measured:
[1] = molecular target: T1, Sodium- and chloride-dependent GABA transporter 1 (Mus musculus, UniProt P31648); experiment: Inhibition of mouse GAT1-mediated [3H]GABA uptake stably transfected in HEK293 cells; type: cell-based
[2] = molecular target: T1, Sodium- and chloride-dependent GABA transporter 1; experiment: Binding affinity to mouse GAT1 stably transfected in HEK293 cells by NO-711 binding assay; type: cell-based
[3] = Inhibition of mouse GAT4-mediated [3H]GABA uptake stably transfected in HEK293 cells; type: cell-based
[4] = molecular target: Sodium- and chloride-dependent GABA transporter 1 (Mus musculus) (UniProt P31648); experiment: Binding affinity to mouse GAT1 stably transfected in HEK293 cells assessed as residual binding at 100 uM relative to control; type: cell-based
[5] = test system: GABA transporter 2 (Mus musculus); experiment: Inhibition of mouse GAT2-mediated [3H]GABA uptake stably transfected in HEK293 cells assessed as residual uptake at 100 uM relative to control
[6] = molecular target: Sodium- and chloride-dependent GABA transporter 1 (Mus musculus) (UniProt P31648); experiment: Inhibition of mouse GAT1-mediated [3H]GABA uptake stably transfected in HEK293 cells assessed as residual uptake at 100 uM relative to control; type: cell-based
HEK293 = experiment: Inhibition of mouse GAT4-mediated [3H]GABA uptake stably transfected in HEK293 cells assessed as residual uptake at 100 uM relative to control; type: cell-based
[7] = test system: GABA transporter 3 (Mus musculus); experiment: Inhibition of mouse GAT3-mediated [3H]GABA uptake stably transfected in HEK293 cells assessed as residual uptake at 100 uM relative to control

Work on `Cc1ccc(CNC(=O)C(CCO)N(C)CCCC(c2ccccc2)c2ccccc2)cc1` (stereo unspecified) yielded an IC50 [1] of 37.2 µM, a Ki [2] of 81.3 µM and an IC50 [3] of 20.4 µM.
Compound `CN(CCCC(c1ccccc1)c1ccccc1)C(CCO)C(=O)NCc1ccc(Cl)cc1` (stereo unspecified) has an Activity [4] of 67%, an IC50 [1] of 38.9 µM and an IC50 [3] of 22.9 µM.
Compound `Cc1ccc(CNC(=O)C(CCO)NCCCC(c2ccccc2)c2ccccc2)cc1` (stereo unspecified) has an IC50 [1] of 55 µM, a Ki [2] of 51.3 µM and an IC50 [3] of 23.4 µM.
Work on `O=C(NCc1ccccc1Cl)C(CCO)NCCCC(c1ccccc1)c1ccccc1` (stereo unspecified) yielded an IC50 [1] of 33.1 µM, a Ki [2] of 46.8 µM and an IC50 [3] of 20.9 µM.
`O=C(NCc1ccccc1)C(CCO)N1CCC(C(c2ccccc2)c2ccccc2)CC1` (stereo unspecified) gave an Activity [4] of 55%, an IC50 [1] of 13.2 µM and an Activity [5] of 51%. For the same compound, the IC50 [3] was 58.9 µM.
For `Cc1ccc(CNC(=O)[C@@H](C[C@@H](C)O)N2CCC(=C(c3ccccc3)c3ccccc3)CC2)cc1` (relative stereo), the Activity [4] was 58% and the Activity [6] was 46%.
With `C[C@H](O)C[C@H](C(=O)NCc1ccccc1Cl)N1CCC(=C(c2ccccc2)c2ccccc2)CC1` (relative stereo) the Activity (HEK293) was 71%, the Activity [4] was 95% and the Activity [5] was 73%. It also gave an Activity [6] of 47%.
In the case of `C[C@@H](O)C[C@H](C(=O)NCc1ccccc1)N1CCC(=C(c2ccccc2)c2ccccc2)CC1` (relative stereo), the Activity [4] is reported as 50%, the IC50 [1] is reported as 7.76 µM and the IC50 [3] is reported as 89.1 µM.
`O=C(NCc1ccccc1)C(CCO)NCCCC(c1ccccc1)c1ccccc1` (stereo unspecified) showed an Activity [4] of 62%, an IC50 [1] of 61.7 µM and an IC50 [3] of 38.9 µM.
Work on `C[C@H](O)C[C@H](C(=O)NCc1ccc(F)cc1)N1CCC(=C(c2ccccc2)c2ccccc2)CC1` (relative stereo) yielded an Activity (HEK293) of 65%, an Activity [4] of 52% and an IC50 [1] of 34.7 µM.
Compound `CN(CCCC(c1ccccc1)c1ccccc1)C(CCO)C(=O)NCc1ccccc1` (stereo unspecified) has an Activity [4] of 79%, an IC50 [1] of 58.9 µM and an IC50 [3] of 36.3 µM.
`Cc1ccsc1C(=CCCN1CCC[C@@H](C(=O)O)C1)c1sccc1C` [TIAGABINE] gave an Activity (HEK293) of 73% and a Ki [2] of 0.0389 µM.
`O=C(NCc1ccc(Cl)cc1)C(CCO)N1CCC(C(c2ccccc2)c2ccccc2)CC1` (stereo unspecified) gave an Activity [4] of 68%, an IC50 [1] of 24 µM and an IC50 [3] of 69.2 µM.
With `CN(CCC=C(c1ccccc1)c1ccccc1)C(CCO)C(=O)NCc1ccc(Cl)cc1` (stereo unspecified) the Activity [4] was 61%, the IC50 [1] was 23.4 µM and the IC50 [3] was 11.2 µM.
`CN(CCC=C(c1ccccc1)c1ccccc1)C(CCO)C(=O)NCc1ccc(F)cc1` (stereo unspecified) showed an Activity [4] of 73%, an IC50 [1] of 21.9 µM and an IC50 [3] of 20 µM.
Work on `O=C(NCc1ccc(F)cc1)C(CCO)N1CCC(C(c2ccccc2)c2ccccc2)CC1` (stereo unspecified) yielded an Activity [4] of 49%, an IC50 [1] of 18.2 µM and an IC50 [3] of 81.3 µM.
In the case of `CN(CCC=C(c1ccccc1)c1ccccc1)C(CCO)C(=O)NCc1ccccc1` (stereo unspecified), the Activity [4] is reported as 50%, the IC50 [1] is reported as 10.5 µM and the IC50 [3] is reported as 22.9 µM.
Work on `CN(CCCC(c1ccccc1)c1ccccc1)C(CCO)C(=O)NCc1ccccc1Cl` (stereo unspecified) yielded an Activity [4] of 85%, an IC50 [1] of 37.2 µM and an IC50 [3] of 25.7 µM.
In the case of `C[C@H](O)C[C@H](C(=O)NCc1ccccc1)N1CCC(=C(c2ccccc2)c2ccccc2)CC1` (relative stereo), the Activity [4] is reported as 51%, the IC50 [1] is reported as 24 µM and the IC50 [3] is reported as 72.4 µM.
With `O=C(NCc1ccccc1Cl)C(CCO)N1CCC(=C(c2ccccc2)c2ccccc2)CC1` (stereo unspecified) the Activity [4] was 68%, the Activity [6] was 58% and the IC50 [3] was 67.6 µM.
With `Cc1ccc(CNC(=O)C(CCO)N2CCC(C(c3ccccc3)c3ccccc3)CC2)cc1` (stereo unspecified) the Activity [4] was 55%, the IC50 [1] was 30.2 µM and the IC50 [3] was 87.1 µM.
In the case of `O=C(NCc1ccc(F)cc1)C(CCO)NCCCC(c1ccccc1)c1ccccc1` (stereo unspecified), the Activity [4] is reported as 82%, the IC50 [1] is reported as 38.9 µM and the IC50 [3] is reported as 25.1 µM.
Work on `Cc1ccc(CNC(=O)C(CCO)N2CCC(=C(c3ccccc3)c3ccccc3)CC2)cc1` (stereo unspecified) yielded an IC50 [1] of 38 µM, a Ki [2] of 43.7 µM and an IC50 [3] of 33.9 µM.
Work on `C[C@@H](O)C[C@H](C(=O)NCc1ccccc1Cl)N1CCC(=C(c2ccccc2)c2ccccc2)CC1` (relative stereo) yielded an Activity (HEK293) of 99%, an Activity [4] of 99% and an Activity [5] of 69%. The Activity [6] was 95% and the Activity [7] was 79%.
In the case of `C[C@H](O)C[C@H](C(=O)NCc1ccc(Cl)cc1)N1CCC(=C(c2ccccc2)c2ccccc2)CC1` (relative stereo), the Activity [4] is reported as 69%, the IC50 [1] is reported as 66.1 µM and the IC50 [3] is reported as 69.2 µM.
Work on `O=C(NCc1ccc(Cl)cc1)C(CCO)N1CCC(=C(c2ccccc2)c2ccccc2)CC1` (stereo unspecified) yielded an IC50 [1] of 33.9 µM, a Ki [2] of 75.9 µM and an IC50 [3] of 17.8 µM.
Work on `Cc1ccc(CNC(=O)C(CCO)N(C)CCC=C(c2ccccc2)c2ccccc2)cc1` (stereo unspecified) yielded an Activity [4] of 50%, an IC50 [1] of 22.4 µM and an IC50 [3] of 16.6 µM.
For `C[C@@H](O)C[C@H](C(=O)NCc1ccc(F)cc1)N1CCC(=C(c2ccccc2)c2ccccc2)CC1` (relative stereo), the IC50 [1] was 16.2 µM, the Ki [2] was 42.7 µM and the IC50 [3] was 41.7 µM.
Work on `O=C(NCc1ccc(Cl)cc1)C(CCO)NCCCC(c1ccccc1)c1ccccc1` (stereo unspecified) yielded an IC50 [1] of 23.4 µM, a Ki [2] of 56.2 µM and an IC50 [3] of 16.6 µM.
Work on `Cc1ccc(CNC(=O)[C@@H](C[C@H](C)O)N2CCC(=C(c3ccccc3)c3ccccc3)CC2)cc1` (relative stereo) yielded an Activity [4] of 57%, an IC50 [1] of 53.7 µM and an IC50 [3] of 34.7 µM.
`CN(CCC=C(c1ccccc1)c1ccccc1)C(CCO)C(=O)NCc1ccccc1Cl` (stereo unspecified) gave an Activity [4] of 54%, an IC50 [1] of 19.1 µM and an IC50 [3] of 10 µM.
Compound `CN(CCCC(c1ccccc1)c1ccccc1)C(CCO)C(=O)NCc1ccc(F)cc1` (stereo unspecified) has an Activity [4] of 74%, an IC50 [1] of 97.7 µM and an IC50 [3] of 58.9 µM.
`O=C(NCc1ccccc1Cl)C(CCO)N1CCC(C(c2ccccc2)c2ccccc2)CC1` (stereo unspecified) showed an Activity [4] of 89%, an IC50 [1] of 19.5 µM and an IC50 [3] of 67.6 µM.
